Source: ChEMBL document CHEMBL5223094, “Recent advancements in chromone as a privileged scaffold towards the development of small molecules for neurodegenerative therapeutics” (RSC Med Chem, 2022)
Values belong to the compound of their own block, whether it stands above or below them.

Experiments:
Cholinesterase = Cholinesterase (Equus caballus, UniProt P81908); assay: Inhibition of equine serum BuchE using butyrylthiocholine iodide as substrate preincubated for 10 mins followed by substrate addition and measured after 20 mins by DTNB based Ellman's method
Cholinesterase, sequence (P81908 whole entry): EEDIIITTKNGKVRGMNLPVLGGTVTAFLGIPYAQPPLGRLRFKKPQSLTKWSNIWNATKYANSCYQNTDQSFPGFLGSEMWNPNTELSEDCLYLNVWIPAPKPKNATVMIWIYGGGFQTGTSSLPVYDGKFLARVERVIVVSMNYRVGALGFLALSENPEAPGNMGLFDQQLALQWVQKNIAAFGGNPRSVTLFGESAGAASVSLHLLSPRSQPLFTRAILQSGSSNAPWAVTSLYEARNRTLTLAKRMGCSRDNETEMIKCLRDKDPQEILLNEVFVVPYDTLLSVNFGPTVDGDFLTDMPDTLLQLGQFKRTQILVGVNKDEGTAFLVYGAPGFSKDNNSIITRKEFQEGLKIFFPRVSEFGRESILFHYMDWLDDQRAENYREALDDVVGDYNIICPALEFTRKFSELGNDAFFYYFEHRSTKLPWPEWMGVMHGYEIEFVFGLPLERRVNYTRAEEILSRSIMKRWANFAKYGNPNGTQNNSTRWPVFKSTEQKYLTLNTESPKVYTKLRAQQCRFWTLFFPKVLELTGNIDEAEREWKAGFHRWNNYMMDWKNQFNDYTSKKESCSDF

Acetylcholinesterase [1] = molecular target: T1, Acetylcholinesterase (Homo sapiens, UniProt P22303); assay: Inhibition of human AchE expressed in human HEK293 cells using acetylthiocholine as substrate preincubated for 10 mins followed by substrate addition and measured after 5 to 8 mins by DTNB based Ellman's spectrophotometric method; type: cell-based
T1 sequence (P22303 whole entry): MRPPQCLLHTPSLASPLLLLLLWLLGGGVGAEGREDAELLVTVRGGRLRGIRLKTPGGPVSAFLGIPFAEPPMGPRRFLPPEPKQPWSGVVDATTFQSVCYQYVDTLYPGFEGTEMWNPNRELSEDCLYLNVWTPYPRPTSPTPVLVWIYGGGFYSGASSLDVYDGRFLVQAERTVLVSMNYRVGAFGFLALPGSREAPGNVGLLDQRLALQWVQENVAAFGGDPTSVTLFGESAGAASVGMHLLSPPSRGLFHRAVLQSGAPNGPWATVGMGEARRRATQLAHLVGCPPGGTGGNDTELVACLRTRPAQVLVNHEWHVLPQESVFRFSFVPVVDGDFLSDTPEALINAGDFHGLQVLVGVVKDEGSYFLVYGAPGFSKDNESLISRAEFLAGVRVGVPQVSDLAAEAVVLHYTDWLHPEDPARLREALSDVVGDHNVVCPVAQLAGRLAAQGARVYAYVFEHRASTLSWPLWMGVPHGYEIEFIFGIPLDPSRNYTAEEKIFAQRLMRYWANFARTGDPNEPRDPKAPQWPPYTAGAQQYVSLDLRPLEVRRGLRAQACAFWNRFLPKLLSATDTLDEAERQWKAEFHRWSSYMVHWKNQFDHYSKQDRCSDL

[2] = molecular target: T2, Amine oxidase [flavin-containing] A (Homo sapiens, UniProt P21397); assay: Inhibition of human MAO-A using kynuramine as substrate preincubated for 5 mins followed by substrate addition and measured after 30 mins by spectroscopic analysis
T2 sequence (P21397 whole entry): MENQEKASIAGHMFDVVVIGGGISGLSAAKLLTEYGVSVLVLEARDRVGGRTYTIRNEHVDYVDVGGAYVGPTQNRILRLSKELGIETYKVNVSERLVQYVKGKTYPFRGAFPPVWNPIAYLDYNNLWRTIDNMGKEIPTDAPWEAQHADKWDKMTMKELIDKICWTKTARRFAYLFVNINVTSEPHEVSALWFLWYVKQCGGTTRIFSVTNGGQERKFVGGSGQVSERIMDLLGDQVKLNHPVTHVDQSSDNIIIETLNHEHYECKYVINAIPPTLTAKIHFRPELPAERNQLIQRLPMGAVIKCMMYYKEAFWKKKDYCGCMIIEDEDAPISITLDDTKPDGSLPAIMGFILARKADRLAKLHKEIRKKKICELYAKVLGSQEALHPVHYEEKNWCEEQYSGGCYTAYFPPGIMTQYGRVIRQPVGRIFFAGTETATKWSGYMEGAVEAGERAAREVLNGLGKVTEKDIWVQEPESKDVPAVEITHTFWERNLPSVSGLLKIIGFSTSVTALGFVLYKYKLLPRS

[3] = molecular target: T3, Amine oxidase [flavin-containing] B (Homo sapiens, UniProt P27338); assay: Inhibition of human MAO-B using kynuramine as substrate preincubated for 5 mins followed by substrate addition and measured after 30 mins by spectroscopic analysis
T3 sequence (P27338 whole entry): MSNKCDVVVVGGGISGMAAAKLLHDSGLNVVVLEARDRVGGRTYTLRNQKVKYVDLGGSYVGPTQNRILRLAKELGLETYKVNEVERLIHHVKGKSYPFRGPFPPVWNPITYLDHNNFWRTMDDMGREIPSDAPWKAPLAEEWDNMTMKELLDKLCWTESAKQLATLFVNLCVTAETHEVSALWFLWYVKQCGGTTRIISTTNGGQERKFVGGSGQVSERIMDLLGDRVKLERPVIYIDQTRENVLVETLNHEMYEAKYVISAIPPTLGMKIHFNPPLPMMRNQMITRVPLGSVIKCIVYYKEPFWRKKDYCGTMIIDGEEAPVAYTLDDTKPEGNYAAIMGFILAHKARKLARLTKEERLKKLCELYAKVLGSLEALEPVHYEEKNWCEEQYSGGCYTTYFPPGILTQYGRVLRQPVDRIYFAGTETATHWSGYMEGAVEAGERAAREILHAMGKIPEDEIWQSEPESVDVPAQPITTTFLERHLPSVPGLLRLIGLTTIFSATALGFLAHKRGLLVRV

[4] = Antioxidant activity assessed as trolox equivalent of ORAC radical scavenging activity incubated for 15 mins by ORAC-fluorescein assay; type: functional
[5] = molecular target: T2, Amine oxidase [flavin-containing] A; assay: Inhibition of human MAO-A using tyramine as substrate preincubated for 10 mins followed by substrate addition and measured after 30 mins by fluorometric method
[6] = molecular target: T3, Amine oxidase [flavin-containing] B; assay: Inhibition of human MAO-B using tyramine as substrate preincubated for 10 mins followed by substrate addition and measured after 30 mins by fluorometric method
[7] = molecular target: T3, Amine oxidase [flavin-containing] B; assay: Inhibition of human MAO-B assessed as recovery of enzyme activity by dialysis method; design: scale not given: the % may be the effect or the level left
[8] = molecular target: T2, Amine oxidase [flavin-containing] A; assay: Inhibition of recombinant human MAO-A using tyramine as substrate preincubated for 30 mins followed by substrate addition and measured after 30 mins by amplex red reagent based fluorometric method
[9] = molecular target: T3, Amine oxidase [flavin-containing] B; assay: Inhibition of recombinant human MAO-B using tyramine as substrate preincubated for 30 mins followed by substrate addition and measured after 30 mins by amplex red reagent based fluorometric method
Acetylcholinesterase [10] = molecular target: T1, Acetylcholinesterase; assay: Inhibition of recombinant human AchE using acetylthiocholine iodide as substrate and measured upto 2 mins by Ellman's method
Acetylcholinesterase [11] = molecular target: T1, Acetylcholinesterase; assay: Inhibition of AchE (unknown origin) using acetylthiocholine iodide as substrate preincubated for 15 mins followed by substrate addition and measured upto 4 mins by Ellman's spectrophotometric method
Acetylcholinesterase [12] = molecular target: Acetylcholinesterase (Electrophorus electricus, UniProt O42275); assay: Inhibition of electric eel AChE using acetylthiocholine iodide as substrate preincubated for 5 mins followed by substrate addition and measured upto 7.5 mins by Ellman's method
Acetylcholinesterase (Electrophorus electricus, UniProt O42275), sequence (O42275 whole entry): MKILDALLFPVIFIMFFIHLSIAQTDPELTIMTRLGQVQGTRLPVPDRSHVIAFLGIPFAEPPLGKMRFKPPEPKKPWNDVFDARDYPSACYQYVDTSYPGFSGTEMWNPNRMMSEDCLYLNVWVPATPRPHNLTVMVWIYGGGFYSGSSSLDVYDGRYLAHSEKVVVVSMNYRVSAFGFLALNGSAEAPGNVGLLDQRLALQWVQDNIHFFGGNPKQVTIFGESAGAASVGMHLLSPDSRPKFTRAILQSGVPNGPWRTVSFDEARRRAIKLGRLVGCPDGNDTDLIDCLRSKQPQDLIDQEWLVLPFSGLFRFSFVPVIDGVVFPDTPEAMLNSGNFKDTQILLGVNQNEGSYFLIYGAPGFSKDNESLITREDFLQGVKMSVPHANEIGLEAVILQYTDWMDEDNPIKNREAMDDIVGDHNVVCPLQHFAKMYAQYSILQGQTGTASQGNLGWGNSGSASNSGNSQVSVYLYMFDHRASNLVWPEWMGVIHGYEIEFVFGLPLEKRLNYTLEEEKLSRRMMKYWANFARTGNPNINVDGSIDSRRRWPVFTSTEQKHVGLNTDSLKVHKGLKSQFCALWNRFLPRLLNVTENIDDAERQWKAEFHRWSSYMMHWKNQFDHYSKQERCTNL

[13] = molecular target: Amyloid-beta precursor protein (Homo sapiens) (UniProt P05067); assay: Inhibition of Amyloid beta (1 to 42) (unknown origin) self aggregation and at 20 uM and measured upto 24 hrs by ThT-based fluorimetric assay
Amyloid-beta precursor protein (Homo sapiens), sequence (P05067 whole entry): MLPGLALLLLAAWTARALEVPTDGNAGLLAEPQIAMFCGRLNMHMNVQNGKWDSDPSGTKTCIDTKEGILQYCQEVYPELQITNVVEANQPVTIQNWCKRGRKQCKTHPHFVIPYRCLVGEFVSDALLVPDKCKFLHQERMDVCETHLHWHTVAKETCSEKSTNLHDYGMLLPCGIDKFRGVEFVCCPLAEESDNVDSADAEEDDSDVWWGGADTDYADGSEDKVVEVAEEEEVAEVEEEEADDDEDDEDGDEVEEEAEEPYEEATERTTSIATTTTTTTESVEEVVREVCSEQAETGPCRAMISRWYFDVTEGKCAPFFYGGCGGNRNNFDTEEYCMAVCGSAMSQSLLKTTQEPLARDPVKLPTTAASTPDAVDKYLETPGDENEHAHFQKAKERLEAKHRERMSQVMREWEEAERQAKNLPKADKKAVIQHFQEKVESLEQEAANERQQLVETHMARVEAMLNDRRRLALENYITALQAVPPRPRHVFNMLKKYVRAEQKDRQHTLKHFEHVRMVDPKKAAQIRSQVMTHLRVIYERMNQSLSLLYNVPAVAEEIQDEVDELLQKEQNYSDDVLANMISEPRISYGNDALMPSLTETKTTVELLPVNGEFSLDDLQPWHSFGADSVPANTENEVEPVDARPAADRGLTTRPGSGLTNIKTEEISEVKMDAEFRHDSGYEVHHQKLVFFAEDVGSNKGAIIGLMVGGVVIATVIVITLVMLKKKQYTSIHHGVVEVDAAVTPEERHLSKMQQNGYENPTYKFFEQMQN

Compound: COc1ccc2[nH]cc(CCNC(=O)CN(CCCCC3CCN(Cc4ccccc4)CC3)C(=O)c3cc(=O)c4ccccc4o3)c2c1
IC50 (Cholinesterase): 12 nM | IC50 (Acetylcholinesterase [1]): 2000 nM | IC50 [2]: 3 µM | IC50 [3]: 21 µM | Activity [4]: 3.04 equiv

IC50 [5]: 4 µM | IC50 [6]: 100 nM | Activity [7]: 70%
Compound: Cc1ccc(NC(=O)c2c(OCc3ccccc3)ccc3c(=O)c(C)c(C)oc23)cc1

IC50 [8]: 19 µM | IC50 [9]: 10 µM
Compound: O=C(OCc1ccc(Cl)cc1)c1coc2ccccc2c1=O

Compound: COc1ccc2c(=O)cc(C(=O)NCCN3CCCCC3)oc2c1
IC50 (Acetylcholinesterase [10]): 90 nM

Compound: CCOP(=O)(OCC)C(NCCc1ccc(OC)cc1)c1coc2ccccc2c1=O (centres undefined)
IC50 (Acetylcholinesterase [11]): 100 nM

Compound: Cc1ccc(C#CCOc2ccccc2/C=C/c2cc(=O)c3ccccc3o2)cc1
IC50 (Acetylcholinesterase [12]): 3 µM | inhibition [13]: 66%
